From US20230398049A1, “TETRAPEPTIDES, COMPOSITIONS COMPRISING THEM, AND THEIR COSMETIC USE” (Sederma, priority 2020, published 2023)
Peptide text beside a SMILES is read from it. * marks the point of attachment. Palmitoyl = CCCCCCCCCCCCCCCC(=O)*

Tests used:
Type in all cases: cell-based
[1] = tested on: RAD23A; test: LC-MS/MS analysis of secretome and matrisome of human dermal fibroblasts: RAD23A; settings: HDF, seven days culture, pooled secretome and matrisome, n=3, 0.05<p<0.1
Method: (§1) Protocol Human dermal fibroblasts (HDF) are cultured with or without the peptide according to the invention (control) in n=3. The cells are cultured normally for five days in serum supplemented medium, then for two additional days in serum-free medium (culture of seven days in total). The cellular medium (secretome) is collected and the matrix separated from the cells with EDTA. The secretome and matrisome are kept for LC-MS/MS analysis. The cells are saved for future analysis. The secretome and matrisome compartments are pooled and processed as single samples.
(§2) Mass spectrometry is used to determine the total amount of certain proteins identified in the secretome and matrisome in the presence of the peptide of the invention and which are absent from the control following the day 7 of incubation. The proteins are denatured (in urea), reduced (in dithiothreitol) and mechanically dissociated (using ultrasound) prior to overnight digestion with the SMART Digest™ Trypsin Kit (Thermo Fisher).
(§3) The samples are analyzed on an UltiMate® 3000 rapid separation liquid chromatograph coupled to a Q Exactive™ Quadrupole-Orbitrap™ hybrid mass spectrometer: 200 ng injected at an analysis time of 90 minutes per sample.
(§4) Protein quantification is performed using Progenesis QI and protein identification using Mascot v2.5.1. Normalized protein concentrations are compared between the peptide and the control. […]

[2] = tested on: Collagen IV; test: ELISA assay of collagen IV synthesis by normal human fibroblasts; settings: NHF, 72 h contact, concentrations of 2 to 3 ppm, ELISA on supernatant
Method: (§5) Normal human fibroblasts (NHF) in culture are brought into contact with the products to be tested or their excipient (negative control) for 72 h. At the end of the contact, the culture supernatants are removed, and the syntheses of the dermal macromolecules are estimated by ELISA assays. An estimate of cell viability is carried out by Hoechst assay to weight the obtained data. Collagen I is evaluated via the PIP assay (carboxy-terminal propeptide of procollagen type I) which is a peptide fragment resulting from the enzymatic degradation of procollagen when the latter is excreted outside the fibroblast (therefore in the culture medium where the assay is carried out).

[3] = tested on: Fibronectine; test: ELISA assay of fibronectin synthesis by normal human fibroblasts; settings: NHF, 72 h contact, ELISA on supernatant
Method: as §5

[4] = tested on: Decorine; test: ELISA assay of decorin synthesis by normal human fibroblasts; settings: NHF, 72 h contact, ELISA on supernatant
Method: as §5

[5] = tested on: Collagen I (PIP); test: ELISA assay of collagen I synthesis (PIP) by normal human fibroblasts; settings: NHF, 72 h contact, ELISA on supernatant
Method: as §5

[6] = tested on: Hyaluronic acid; test: ELISA assay of hyaluronic acid synthesis by normal human fibroblasts; settings: NHF, 72 h contact, concentrations of 2 to 3 ppm, ELISA on supernatant
Method: as §5

[7] = tested on: Nidogen-1; test: LC-MS/MS analysis of secretome and matrisome of human dermal fibroblasts: Nidogen-1; settings: HDF, seven days culture, pooled secretome and matrisome, n=3, p<0.05
Method: as §1, §2, §3, §4

[8] = tested on: Fibrillin 1; test: Immunofluorescence assay of Fibrillin 1 formation by normal human fibroblasts; settings: NHF, five day incubation
Method: Normal human fibroblasts (NHF) are cultured for at least 24 hours in fibroblast growth medium containing serum. Once confluence was reached, the cells are seeded and the actives and corresponding controls diluted in a culture medium are added. At the end of a five day incubation period, the supernatant is removed, the cells are washed with PBS and fixed. The cells are then incubated with the primary Fibrillin 1 monoclonal antibody (11C1.3) (Thermo Fisher) diluted in blocking buffer at a concentration of 1:200. The cells are incubated. The primary antibody is removed and the cells are washed with PBS. The secondary antibody was added at a dilution of 1:1000 in blocking buffer, then removed and the cells are washed with PBS. The formation of Fibrillin 1 by the cells is visualized using a fluorescence microscope. The obtained images are analyzed using an image processing software assigning a numerical value to the coverage density.

[9] = tested on: SOD3; test: LC-MS/MS analysis of secretome and matrisome of human dermal fibroblasts: SOD3; settings: HDF, seven days culture, pooled secretome and matrisome, n=3, 0.05<p<0.1
Method: as §1, §2, §3, §4

[10] = tested on: Decorine; test: LC-MS/MS analysis of secretome and matrisome of human dermal fibroblasts: Decorine; settings: HDF, seven days culture, pooled secretome and matrisome, n=3, 0.05<p<0.1
Method: as §1, §2, §3, §4

| Compound | RAD23A protein amount vs control [1] | Collagen IV synthesis, change vs excipient control [2] | Fibronectine synthesis, change vs excipient control ([3]; concentrations of 2 to 3 ppm) | Decorine synthesis, change vs excipient control ([4]; concentrations of 2 to 3 ppm) | Collagen I (PIP) synthesis, change vs excipient control ([5]; concentrations of 2 to 3 ppm) | Hyaluronic acid synthesis, change vs excipient control [6] | Nidogen-1 protein amount vs control [7] | Fibrillin 1 formation (coverage density), change vs control ([8]; 4 ppm) | SOD3 protein amount vs control [9] | Decorine protein amount vs control [10] | Fibronectine synthesis, change vs excipient control ([3]; concentrations of 5 to 15 ppm) | Decorine synthesis, change vs excipient control ([4]; concentrations of 5 to 15 ppm) | Collagen I (PIP) synthesis, change vs excipient control ([5]; concentrations of 5 to 15 ppm) | Fibrillin 1 formation (coverage density), change vs control ([8]; 10 ppm) |
| --- | --- | --- | --- | --- | --- | --- | --- | --- | --- | --- | --- | --- | --- | --- |
| Pal-ELED-OH: N-palmitoylated tetrapeptide Glu-Leu-Glu-Asp, free C-terminal acid; ELED is a fragment of Biglycan (Palmitoyl-ELED-OH; SMILES CCCCCCCCCCCCCCCC(=O)N[C@@H](CCC(=O)O)C(=O)N[C@@H](CC(C)C)C(=O)N[C@@H](CCC(=O)O)C(=O)N[C@@H](CC(=O)O)C(=O)O) | stimulation | +42% | +70% | +69% | +42% | +28% | stimulation | +97% (p < 0.05) | stimulation | stimulation | – | – | – | – |
| CCCCCCCCCCCCCCCC(=O)N[C@@H](CC(C)C)C(=O)N[C@@H](CCCCN)C(=O)N[C@@H](CC(C)C)C(=O)N[C@@H](CCC(=O)O)C(=O)O [Pal-LKLE-OH, palmitoyl-leucyl-lysyl-leucyl-glutamic acid] (Palmitoyl-LKLE-OH) | – | – | – | – | – | – | – | – | – | – | +48% | +21% | +81% | +81% (p < 0.05) |
